“Also recorded” adds a separate entry of the source. Like-named read-outs stand apart in the source and are kept apart here. Residues, ends and D or L forms follow the SMILES beside them. *: point of attachment. Cbz = O=C(OCc1ccccc1)*; d = 2'-deoxy (DNA); r = 2'-OH (RNA); CH2F = FC*
Tests used:
[1] = target: T1, human recombinant caspase-2 (Homo sapiens, UniProt P42575); experiment: In vitro VDVAD-AMC cleavage by recombinant caspase-2; type: biochemical
T1 construct: purchased BIOMOL
T1 sequence (P42575 170-325 limits assumed): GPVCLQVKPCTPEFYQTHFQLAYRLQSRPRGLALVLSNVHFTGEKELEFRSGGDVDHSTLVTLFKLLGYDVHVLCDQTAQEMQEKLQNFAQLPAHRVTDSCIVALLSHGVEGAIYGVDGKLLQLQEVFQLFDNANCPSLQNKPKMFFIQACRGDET
T1 sequence (P42575 348-452 limits assumed): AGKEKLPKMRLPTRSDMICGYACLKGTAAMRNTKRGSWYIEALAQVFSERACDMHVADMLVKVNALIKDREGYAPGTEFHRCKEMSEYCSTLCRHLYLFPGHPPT
Procedure: Activity of human recombinant caspase-2 (BIOMOL QuantiZyme™ Assay System) was assessed in 100 μl assay buffer (50 mM HEPES, pH 7.4, 100 mM NaCl, 0.1% CHAPS, 10 mM DTT, 1 mM EDTA, 10% glycerol).

[2] = tested on: neonatal ischemic brain injury in 7 day-old rats; settings: cited from earlier work
[3] = tested on: primary cortical neurons; type: cell-based; settings: for ΔΨm loss (drop) in SD-neurons: JC-1
[4] = tested on: Jurkat cells; experiment: VP16-induced cell death of Jurkat cells, cytoprotection assay; type: cell-based, human
[5] = tested on: caspase-9; experiment: In cellula caspase-9 like activity (FAM-LEHD-FMK FLICA) in SD-neurons; type: cell-based, mouse
Procedure: Neurons were incubated with 1/150 of the DMSO stock solution of the FLICA for 1 hr at 37° C. 7-AAD and Hoechst were added during the last 15 min. Then neurons were washed three times in washing buffer (CaspaTag™ Kit). […] Cleaved caspase-3 was evidenced in cellula by immunodetection using Phycoerythrin (PE)-conjugated polyclonal antibodies (Beckton Dickinson). Neurons were stained by 7-AAD, trypsinized and fixed in PBS containing 1% PFA and 20 μg/ml Actinomycin D (AD) for 20 min. […] After washings in PBS, PE-related fluorescence was analysed on the cytometer (Fl-2 channel). Z-val-Ala-Asp(OMe)-FMK (Z-VAD-FMK), Quinoline-Val-Asp (OMe)-CH2-O-Ph (Q-VD-OPH), Z-DEVD-FMK ([…], ICN) and Z-LEHD-FMK ([…], all purchased from ICN (Orsay, France), and 4-(2-Aminoethyl)benzenesulfonyl fluoride (AEBSF, Pefabloc SC, Roche, Meylan, France) were added at 100 μM at the initiation of serum deprivation. Sulforhodamine-DEVD-FMK, (CaspaTag™ Red Activity Kit) permitted to detect activated caspase-3 and FITC-Annexin V. Neurons were incubated with 1/900 of the DMSO stock solution of the FLICA, and 1× FITC-annexin V in 200 μl of annexin-buffer for 30 min at 37° C. Then neurons were washed three times in a buffer composed of 50% washing buffer and 50% annexin-buffer. […] For FM, FLICA was excited through the BP515-560 filter and its fluorescence was collected through the LP590 long pass emission filter.
Neurons were loaded with 1 μM JC-1 for 30 min at 37° C. […] JC-1 monomers were detected in the Fl-1 channel by FC. […] Activated caspase-2, -3, -8 and -9 were detected using specific FAM-conjugated peptides (called Fluorochrome Labeled Inhibitor of Caspase, FLICA: CaspaTag™ fluorescein Caspase Activity Kits, Q-Biogen, Illkirch, France; ApoFluor™ Caspase Detection Kits, ICN, Orsay, France): FAM-VDVAD-FMK, FAM-DEVD-FMK, FAM-LETD-FMK and FAM-LEHD-FMK, respectively. Neurons were incubated with FLICAs (1:150, CaspaTag™ or 1:500, ApoFluor™) for 1 hr at 37° C., then washed three times in washing buffer. […] Phosphatidylserine (PS) exposure to the outer leaflet of the plasma membrane was detected through the fixation of FITC conjugated-annexin V (Immunotech).

[6] = tested on: neonatal ischemic brain injury in 7 day-old rats; settings: rat, in vivo, ip
[7] = tested on: caspase-2; experiment: In cellula caspase-2 like activity (FAM-VDVAD-FMK FLICA; Western blotting) in SD-neurons; type: cell-based, mouse
[8] = tested on: Bax; experiment: Bax translocation to mitochondria in SD-neurons (Δ21 antibody immunostaining, subcellular fractionation); type: cell-based, mouse
[9] = tested on: caspase-8; experiment: In cellula caspase-8 like activity (FAM-LETD-FMK FLICA) in SD-neurons; type: cell-based, mouse
[10] = tested on: caspase-3; experiment: In cellula caspase-3 like activity (FAM-DEVD-FMK FLICA or anti-cleaved caspase-3 antibody) in SD-neurons; type: cell-based, mouse
[11] = tested on: cytochrome c; experiment: Immunodetection of cytochrome c release in SD-neurons; type: cell-based, mouse
[12] = tested on: primary cortical neurons; experiment: Cortical neuron death induced by other stimuli (ionomycin, staurosporine, β-amyloid 25-35, MPTP, 3-NPA, SNP); type: cell-based, mouse
[13] = tested on: caspase-2; experiment: Caspase-2 activation (FLICA) in VP16-treated Jurkat cells; type: cell-based, human; settings: VP16 10 μM, 7 hrs; inhibitors 50 μM
[14] = tested on: murine caspase-2; experiment: Caspase-2 knock-down by siRNA in cortical neurons (RT-PCR, Western blotting, 10C6 immunostaining); type: cell-based, mouse; settings: in situ antibody-based detection
[15] = tested on: Bax α; experiment: Bax cleavage (p22 to p18) in SD-neurons by Western blotting; type: cell-based, mouse; settings: 24 hr-SD, Western Blotting Δ21 antibody; VDVAD/QVDOPH 100 μM, ALLN/ALLM 25 μM, E64d 25-50 μM, lactacystin 1-10 μM, epoxomycin 10 μM
Procedure: Neurons were lysed at RT in 25 mM Tris-HCl pH 7.4, 25 mM NaCl, 5 mM EDTA, 1% Triton X-100 supplemented by complete protease inhibitors cocktail (Roche). Protein concentration was determined using the Bio-Rad protein assay kit. Proteins (30 μg for caspase-2; 10 μg for Bax) were separated on 12.5% polyacrylamide gels and transferred to PVDF membranes (Amersham). […] The monoclonal anti-mouse caspase-2antibody (11B4, Alexis Biochemicals) was used at a 1:1000 dilution; polyclonal antibody (Δ21, Santa Cruz Biotechnology) raised against mouse Bax α deleted for the carboxy terminal 21 amino acids was used at a 1:200 dilution; polyclonal antibody (N20, Santa Cruz Biotechnology) raised against the amino terminus of Bax α (recognizing residues 11 to 30) was used at a 1:1000 dilution. Actin (42 kDa; Sigma; 1:5000) is used as an equal loading control. Immunoblotting of heat-shock protein 60 (HSP60) with a mouse monoclonal anti-HSP (Sigma; 1:400) was used to check the purity of the heavy membrane fraction enriched in mitochondria.

[16] = target: T2, VDVAD-AMC
T2 chain: VDVAD

[17] = inhibitor 2 μM, 50 μM VDVAD-AMC, caspase-2 125 U, 30 min at 37° C.
[18] = 24 hr-SD, inhibitors 100 μM (BA 25 μM)
[19] = 24 hr-SD, inhibitors 100 μM (BA 25 μM), listed as z-LEHD-fmk
[20] = 24 hr-SD, inhibitors 100 μM (BA 25 μM), listed as LEHD

## COC(=O)CC(NC(=O)OC(C)(C)C)C(=O)CF [BOC-D-FMK, BOC-Asp(OMe)-fluoromethylketone]
[1]; [17]
  inhibition of VDVAD-AMC cleavage by recombinant caspase-2: completely inactive
[2]; Renolleau's model
  animals with aggravation: 60%
[2]; previous results obtained in this model
  reduction in infarct volume (previous results in this model): did not induce such a significant reduction in infarct volume
[3]
  survival / protection of SD-neurons against cell death (apoptosis hallmarks overall): neither Z-VAD-FMK nor BOC-D-FMK (BOC-D) is able to delay or to abrogate; also recorded: inefficient
[3]; SD model, compound added at the start of SD at the concentration of column '[ ], μM' (first concentration/target where two are printed)
  Survival: No

## COC(=O)CC(NC(=O)C(NC(=O)c1ccc2ccccc2n1)C(C)C)C(=O)COc1ccccc1 (stereo not shown) [Q-VD-OPH, Quinoline-Val-Asp (OMe)-CH2-O-Ph]
[1]
  inhibition of VDVAD-AMC cleavage by recombinant caspase-2: blocked
[4]
  cell death induced by VP16 (survival): prevents cell death
  terminal nuclear alterations and PMP in VP16-treated Jurkat cells: mostly prevent
[5]
  caspase-9 like activity / activation in SD-neurons: completely inactivated; also recorded: prevent downstream cytochrome c release-dependent activation
[6]
  animals that exhibited no infarct: 4
  infarct volume (% damage in the lesioned ipsilateral hemisphere): 12.4±2.6%
  mortality rate during ischemia or before killing: < 4%
  reduction in infarct volume: 44%
[7]
  caspase-2 like activity / activation in SD-neurons: completely inactivated; also recorded: abolish caspase-2 activation
[3]
  Survival: Yes
  concentration required for optimal survival / higher protective effect: 100 µM
  degradation phase of apoptosis: PS exposure, nuclear apoptosis (NA), PMP in SD-neurons: strongly prevent; also recorded: fully blocked
  inhibition of PMP (7-AAD) induced by serum deprivation: 93.9+/−3.8%
  survival / protection of SD-neurons against cell death (apoptosis hallmarks overall): mostly rescued; also recorded: highly preserves both nuclear morphology and neurites integrity
[8]
  Bax translocation (relocation) to mitochondria in SD-neurons: impair Bax translocation to mitochondria; also recorded: prevented
[9]
  caspase-8 like activity in SD-neurons: completely inactivated
[10]
  caspase-3 like activity / activation in SD-neurons: strongly prevent; also recorded: completely inactivated; also recorded: prevent downstream cytochrome c release-dependent activation
[10]; 100 µM
  inhibition of caspase-3 like activity induced by serum deprivation: 95.3 +/- 5.6%
[11]
  cytochrome c release from mitochondria in SD-neurons: efficiently blocked
[12]
  cell death induced by staurosporine or ionomycin: is not prevented
  protection from NA and PMP induced by β-amyloid (25-35), MPTP, 3-NPA, SNP or ionomycin: fails to provide protection, except for β-amyloid; also recorded: fail to prevent significantly

## COC(=O)CCC(NC(=O)C(CC(C)C)NC(=O)OCc1ccccc1)C(=O)NC(Cc1cnc[nH]1)C(=O)NC(CC(=O)OC)C(=O)CF (stereo not shown) [Z-LEHD-FMK, N-benzyloxycarbonyl-Leu-Glu(Ome)-His-Asp(OMe)-fluoromethylketone] (Cbz-LE(OMe)HD(OMe)-CH2F; configuration not given here)
[1]; [17]
  inhibition of VDVAD-AMC cleavage by recombinant caspase-2: did not interfere highly; also recorded: not strongly inactivated
[4]; VP16 10 μM, 7-8 hrs, inhibitors 50 μM
  ΔΨm loss in VP16-treated Jurkat cells: not abolished
[5]; [18]
  caspase-9 like activity / activation in SD-neurons: prevents caspase-9 activation
[5]; [19]
  caspase-9 like activity / activation in SD-neurons: abolition of caspase-9 like activity
[13]
  caspase-2 activation in VP16-treated Jurkat cells: do not impair caspase-2 activation
[3]; [18]
  ΔΨm loss (drop) in SD-neurons: does not impair; also recorded: does not impaired ΔΨm drop
  degradation phase of apoptosis: PS exposure, nuclear apoptosis (NA), PMP in SD-neurons: delays and prevents apoptotic bodies formation but not stage I-condensation; also recorded: prevents
[3]; [20]
  ΔΨm loss (drop) in SD-neurons: does not impair ΔΨm drop
  degradation phase of apoptosis: PS exposure, nuclear apoptosis (NA), PMP in SD-neurons: preventing PS exposure, NA and PMP
[3]; [19]
  degradation phase of apoptosis: PS exposure, nuclear apoptosis (NA), PMP in SD-neurons: abolishes PS exposure and PMP
[8]; 24 hr-SD, inhibitors 100 μM (furosemide 2 mM)
  Bax translocation (relocation) to mitochondria in SD-neurons: does not prevent mitochondrial Bax relocation
[8]; 24 hr-SD, inhibitors 100 μM (furosemide 2 mM), listed as LEHD
  Bax translocation (relocation) to mitochondria in SD-neurons: fail to impair Bax relocation
[11]; 24 hr-SD, inhibitors 100 μM
  cytochrome c release from mitochondria in SD-neurons: could not prevent cytochrome c release
[11]; 24 hr-SD, inhibitors 100 μM, listed as LEHD
  cytochrome c release from mitochondria in SD-neurons: fail to impair cytochrome c release

## siRNA C2 m: irrelevant control siRNA with 4 mutations, duplex of SEQ ID No 3 and SEQ ID No 4 (chain 1 CAUCUACUCGAGACGGACATT; chain 2 UGUCCGUCUCGAGUAGAUGTT; sugars from the 5' end r19 d2, backbone not given here)
[14]
  caspase-2 expression (gene silencing / knock-down): prevents neither gene/protein expression
[15]
  Bax cleavage (p18 Bax) in SD-neurons: has no effect

B1: human recombinant caspase-2 (BIOMOL QuantiZyme Assay System) (protein)
chain: GPVCLQVKPCTPEFYQTHFQLAYRLQSRPRGLALVLSNVHFTGEKELEFRSGGDVDHSTLVTLFKLLGYDVHVLCDQTAQEMQEKLQNFAQLPAHRVTDSCIVALLSHGVEGAIYGVDGKLLQLQEVFQLFDNANCPSLQNKPKMFFIQACRGDETDRGVDQQDGKNHAGSPGCEESDAGKEKLPKMRLPTRSDMICGYACLKGTAAMRNTKRGSWYIEALAQVFSERACDMHVADMLVKVNALIKDREGYAPGTEFHRCKEMSEYCSTLCRHLYLFPGHPPT
[16]
  cleavage of VDVAD-AMC (fluorescence emission at 510 nm upon excitation at 405 nm): The cleavage of 50 µM VDVAD-AMC by recombinant caspase-2 (125 U) was measured after 30 min at 37 °C

From patent publication US20120329721A1, “MEANS FOR PREVENTING AND TREATING CELLULAR DEATH AND THEIR BIOLOGICAL APPLICATIONS” (CHIESI FARMACEUTICI S.P.A., priority 2003, published 2012)
